The target in one assay is SARS2-PLpro K157A mutant (Severe acute respiratory syndrome coronavirus 2, UniProt P0DTD1, K1720A). The assay is classed as biochemical, SARS-CoV-2.
Assay [1] has as its system SARS-CoV-2 variants of concern B.1.1.7 (Alpha), B.1.351 (Beta) and B.1.617.2 (Delta). Description: microbe, parasite or virus in culture. The class given is cell-based. As to conditions: Severe acute respiratory syndrome coronavirus 2, VeroE6/TMPRSS2, read-out: EC50 against SARS-CoV-2 variants of concern.

Molecules are shown by their SMILES.

The text below walks through data of patent publication US11986478B2 (priority 2021, dated 2024).

Take `O=C(Nc1ccccc1Cl)c1sc(=S)n2c1[nH]c(=O)c1ccccc12` [Compound F0213]: the “effect of K157A substitution on inhibitory potency” value on SARS2-PLpro K157A mutant is listed as “significantly diminished the inhibitory potency”. Further, the EC50 in assay [1] lay in the range of 2.2 to 4.8 µM.

A word on the EC50: it is the concentration needed to bring the measured effect to its halfway point.
